Experimental data: patent publication US7022843B1, “β,β′-dihydroxy meso-substituted chlorins, isobacteriochlorins, and bacteriochlorins” (priority 1999, dated 2006)
Several values for one entry are separate records, joined by “and”; a condition that tells them apart may be missing. Equal values may be shown once. Read-outs that look alike come from different tables or passages of the source.

Tests used:
[1] = test system: L1210 cells; experiment: Phototoxicity in L1210 cells, MTT viability assay; type: cell-based; settings: for LD50: phototoxicity, L1210 cells
Procedure: The above described compounds were tested in vitro for phototoxicity and dark toxicity in L1210 cells as described in the Example section below. Twenty four compounds which were tested for cytotoxicity are listed in Table 3 below along with BPD-MA.
(§1) Phototoxicity was determined with L11210 cells in the presence of the compound as follows: the L1210 cells were exposed to varying concentrations of the compounds in 96-well microtiter plates for one hour at 37° C. and 5% CO2. No fetal calf serum (FCS) was added at this time. The plate was then illuminated for one hour after which a 10% aqueous FCS solution was added to the wells. The plates were then returned to the CO2 incubator overnight. After incubation, the cells were assayed for viability using the MTT assay (Mossman, T. J. Immunol. Meth. 1983, 65, 55).

[2] = test system: L1210 cells; experiment: Dark cytotoxicity in L1210 cells (plates wrapped in aluminum foil); type: cell-based
Procedure: The above compounds were also tested for dark toxicity. Dark toxicity refers to the toxicity of the drug to cells in the absence of light. This toxicity is, therefore, not due to singlet oxygen mediated cellular damage.
as §1
Dark cytotoxicity was determined while the plates were wrapped in aluminum foil while under the light source.

[3] = 1 h exposure without FCS, 1 h illumination, MTT

Row | Molecule | LD50 [1, 3] | LD50 ([1]; Table 4) [ng/mL] | LD50dark [2] [ng/mL] | LD20dark ([2]; L1210 cells, absence of light) [ng/mL] | times more potent than BPD-MA ([1]; fold potency based on LD50) | times more potent than HpD ([1]; fold potency based on LD50) | times more potent than Photofrin™ ([1]; fold potency based on LD50) | LD50 ([1]; 1 h exposure without FCS, 1 h illumination, MTT, listed as diphenyl-2,3-dihydroxychlorin) [ng/mL] | LD50dark ([2]; L1210 cells, absence of light) [ng/mL]
1 | Oc1ccc(-c2c3nc(c(-c4ccc(O)cc4)c4ccc([nH]4)c(-c4ccc(O)cc4)c4nc(c(-c5ccc(O)cc5)c5ccc2[nH]5)C(O)C4O)C=C3)cc1 (centres unmarked) [Compound 10, T(p-OH)PC(OH)2] | 4.92 M and 3500 ng/mL | 3500 | 15000 | 5000 |  |  |  |  | 
2 | COc1cc(-c2c3nc(c(-c4cc(OC)c(OC)c(OC)c4)c4ccc([nH]4)c(-c4cc(OC)c(OC)c(OC)c4)c4nc(c(-c5cc(OC)c(OC)c(OC)c5)c5ccc2[nH]5)C(O)C4O)C=C3)cc(OC)c1OC (centres unmarked) [Compound 18, T(m,p,m′-OCH3)PC(OH)2] | 0.0198 M and 20 ng/mL | 20 | 20000 | 7500 |  |  |  |  | 
3 | OC1c2nc(c(-c3ccc(Br)cc3)c3ccc([nH]3)c(-c3ccc(Br)cc3)c3nc(c(-c4ccc(Br)cc4)c4ccc([nH]4)c2-c2ccc(Br)cc2)C=C3)C1O (centres unmarked) [Compound 5, T(p-Br)PC(OH)2] | 6.22 M and 6000 ng/mL | 6000 | 8000 | 1900 |  |  |  |  | 
4 | OC1c2cc3ccc([nH]3)c(-c3ccccc3)c3nc(cc4ccc([nH]4)c(-c4ccccc4)c(n2)C1O)C=C3 (centres unmarked) [Compound 25, diphenyl-2,3-dihydroxychlorin] | 0.0024 M and 1.2 ng/mL | 1.2 | 5000 | 1500 | 10 | 700 | 450 | 1.2 | 
5 | O=[N+]([O-])c1cccc(-c2c3nc(c(-c4cccc([N+](=O)[O-])c4)c4ccc([nH]4)c(-c4cccc([N+](=O)[O-])c4)c4nc(c(-c5cccc([N+](=O)[O-])c5)c5ccc2[nH]5)C(O)C4O)C=C3)c1 (centres unmarked) [Compound 4, T(m-NO2)PC(OH)2] | 5.43 M and 4500 ng/mL | 4500 | 15000 | 4500 |  |  |  |  | 
6 | T(p-OCH3)PC(OH)2 [Compound 14] | 7.81 M and 6000 ng/mL | 6000 | >20000 | 9000 |  |  |  |  | 
7 | COc1cc(OC)cc(-c2c3nc(c(-c4cc(OC)cc(OC)c4)c4ccc([nH]4)c(-c4cc(OC)cc(OC)c4)c4nc(c(-c5cc(OC)cc(OC)c5)c5ccc2[nH]5)C(O)C4O)C=C3)c1 (centres unmarked) [Compound 16, T(m,m′-OCH3)PC(OH)2] | 2.25 M and 2000 ng/mL | 2000 | 12000 | 5000 |  |  |  |  | 
8 | COc1cc(OC)c(-c2c3nc(c(-c4c(OC)cc(OC)cc4OC)c4ccc([nH]4)c(-c4c(OC)cc(OC)cc4OC)c4nc(c(-c5c(OC)cc(OC)cc5OC)c5ccc2[nH]5)C(O)C4O)C(O)C3O)c(OC)c1 (centres unmarked) [Compound 30, T(o,p,o′-OCH3)PB(OH)4] | 18 ng/mL | 18 | 18000 | 1200 |  |  |  |  | 
9 | COc1cc(-c2c3nc(c(-c4ccc(O)c(OC)c4)c4ccc([nH]4)c(-c4ccc(O)c(OC)c4)c4nc(c(-c5ccc(O)c(OC)c5)c5ccc2[nH]5)C(O)C4O)C=C3)ccc1O (centres unmarked) [Compound 17, T(m-OCH3,p-OH)PC(OH)2] | 0.0361 M and 30 ng/mL | 30 | 4500 | 500 |  |  |  |  | 
10 | Cc1cc(C)c(-c2c3nc(c(-c4c(C)cc(C)cc4C)c4ccc([nH]4)c(-c4c(C)cc(C)cc4C)c4nc(c(-c5c(C)cc(C)cc5C)c5ccc2[nH]5)C(O)C4O)C=C3)c(C)c1 (centres unmarked) [Compound 22, T(o,p,o′-CH3)PC(OH)2] | 12.3 M and 10000 ng/mL | 10000 | 18000 | 7500 |  |  |  |  | 
11 | COc1cccc(-c2c3nc(c(-c4cccc(OC)c4)c4ccc([nH]4)c(-c4cccc(OC)c4)c4nc(c(-c5cccc(OC)c5)c5ccc2[nH]5)C(O)C4O)C=C3)c1 (centres unmarked) [Compound 15, T(m-OCH3)PC(OH)2] | 1.3 M and 1000 ng/mL |  |  |  |  |  |  |  | 
12 | Oc1ccc(-c2c3nc(c(-c4ccccc4)c4ccc([nH]4)c(-c4ccccc4)c4nc(c(-c5ccccc5)c5ccc2[nH]5)C=C4)C(O)C3O)cc1 (stereo not drawn) [Compound 27, meso-5-(p-hydroxyphenyl)-10,15,20-triphenyl-2,3-dihydroxychlorin] | 0.0211 M and 14 ng/mL | 14 | 9000 | 2000 |  |  |  |  | 
13 | OC1c2nc(c(-c3cccc(Br)c3)c3ccc([nH]3)c(-c3cccc(Br)c3)c3nc(c(-c4cccc(Br)c4)c4ccc([nH]4)c2-c2cccc(Br)c2)C=C3)C1O (centres unmarked) [Compound 6, T(m-Br)PC(OH)2] | 4.15 M and 4000 ng/mL | 4000 | 4000 | 1500 |  |  |  |  | 
14 | CC(C)(C)c1ccc(-c2c3nc(c(-c4ccc(C(C)(C)C)cc4)c4ccc([nH]4)c(-c4ccc(C(C)(C)C)cc4)c4nc(c(-c5ccc(C(C)(C)C)cc5)c5ccc2[nH]5)C(O)C4O)C=C3)cc1 (centres unmarked) [Compound 24, T(p-t-Bu)PC(OH)2] | 6.88 M and 6000 ng/mL | 6000 | 7000 | 2000 |  |  |  |  | 
15 | O=[N+]([O-])c1ccc(-c2c3nc(c(-c4ccccc4)c4ccc([nH]4)c(-c4ccccc4)c4nc(c(-c5ccccc5)c5ccc2[nH]5)C=C4)C(O)C3O)cc1 (stereo not drawn) [Compound 28, meso-5-(p-nitrophenyl)-10,15,20-triphenyl-2,3-dihydroxychlorin] | 2.42 M and 2000 ng/mL | 2000 | 18000 | 2000 |  |  |  |  | 
16 | COC(=O)c1ccc(-c2c3nc(c(-c4ccc(C(=O)OC)cc4)c4ccc([nH]4)c(-c4ccc(C(=O)OC)cc4)c4nc(c(-c5ccc(C(=O)OC)cc5)c5ccc2[nH]5)C(O)C4O)C=C3)cc1 (centres unmarked) [Compound 12, T(p-CO2Me)PC(OH)2] | 0.136 M and 120 ng/mL | 120 |  | 3000 |  |  |  |  | 15000
17 | Cc1ccc(-c2c3nc(c(-c4ccc(C)cc4)c4ccc([nH]4)c(-c4ccc(C)cc4)c4nc(c(-c5ccc(C)cc5)c5ccc2[nH]5)C(O)C4O)C=C3)cc1 (centres unmarked) [Compound 21, T(p-CH3)PC(OH)2] | 9.94 M and 7000 ng/mL | 7000 | 15000 | 5000 |  |  |  |  | 
18 | Oc1cccc(-c2c3nc(c(-c4cccc(O)c4)c4ccc([nH]4)c(-c4cccc(O)c4)c4nc(c(-c5cccc(O)c5)c5ccc2[nH]5)C(O)C4O)C=C3)c1 (centres unmarked) [Compound 11, T(m-OH)PC(OH)2] | 0.0211 M and 15 ng/mL | 15 | 12500 | 10000 |  |  |  |  | 
19 | OC1c2nc(c(-c3cccc(F)c3)c3ccc([nH]3)c(-c3cccc(F)c3)c3nc(c(-c4cccc(F)c4)c4ccc([nH]4)c2-c2cccc(F)c2)C=C3)C1O (centres unmarked) [Compound 7, T(m-F)PC(OH)2] | 6.87 M and 5000 ng/mL | 5000 | 6000 | 1500 |  |  |  |  | 
20 | OC1c2nc(c(-c3ccccc3)c3ccc([nH]3)c(-c3ccccc3)c3nc(c(-c4ccccc4)c4ccc([nH]4)c2-c2ccccc2)C(O)C3O)C1O (centres unmarked) [Compound 29, H2TPB(OH)4] | 1.03 M and 700 ng/mL | 700 | 7500 | 2500 |  |  |  |  | 
21 | OC1c2nc(c(-c3ccccc3F)c3ccc([nH]3)c(-c3ccccc3F)c3nc(c(-c4ccccc4F)c4ccc([nH]4)c2-c2ccccc2F)C=C3)C1O (centres unmarked) [Compound 8, T(o-F)PC(OH)2] | 4.17 M and 3000 ng/mL | 3000 | 15000 | 5000 |  |  |  |  | 
22 | OC1c2nc(c(-c3ccccc3)c3ccc([nH]3)c(-c3ccccc3)c3nc(c(-c4ccccc4)c4ccc([nH]4)c2-c2ccccc2)C=C3)C1O (centres unmarked) [Compound 3, H2TPC(OH)2] | 2.78 M and 1800 ng/mL | 1800 | 19000 | 7000 |  |  |  |  | 
23 | T(p-OCOEt)PC(OH)2 [Compound 13] |  | 1000 | 20000 | 8000 |  |  |  |  | 
